Assay results taken from patent US9822343B2, “Methods and materials for obtaining induced pluripotent stem cells” (priority 2011, dated 2017).

Key:
Assay type in all cases: cell-based, mouse
[1] = test system: MEFs undergoing nuclear reprogramming; experiment: Reprogramming efficiency by FACS analysis of SSEA-1 expression; details: vehicle 27.8±3.1, mean±SEM, n=3
From the text: (§1) Mouse embryonic fibroblasts (MEFs) were transduced with HIV-based viral vectors encoding OCT3/4, SOX2, and KLF4 either in the presence (4F) or absence of c-MYC (3F) to produce iPS clones that met pluripotent criteria including expression of stem cell markers, embryoid body differentiation, teratoma formation, diploid aggregation, and contribution to organogenesis (Martinez-Fernandez et al., Circ. Res., 105:648-656 (2009); Nelson et al., Clin. Transl. Sci., 2:118-126 (2009); and Nelson et al., Circulation, 120:408-416 (2009)). Alternatively, iPS cells were derived with a viPS (Open Biosystems) kit. iPS cells were induced and maintained in ES Cell qualified DMEM supplemented with 15% FBS, 25 mM glucose, 2 mM Glutamax (Invitrogen), and 1 mM sodium pyruvate. In reprogramming experiments, media was supplemented with 0.25 or 1.25 mM 2DG (Sigma), 100 μM BrPA (Sigma) or 5 mM DCA (Sigma). Reprogramming efficiency was quantified using an alkaline phosphatase staining kit (Stemgent) or FACS analysis of SSEA-1 expression (Millipore) on a LSR II flow cytometer.

[2] = test system: parental MEF population; experiment: Growth of the parental MEF population; details: 1.25 mM 2-DG, 100 μM BrPA, 5 mM DCA
[3] = test system: MEFs; experiment: 1H NMR metabolomic footprinting of extracellular metabolites of treated MEFs; details: control experiments; 1.25 mM 2-DG, 100 μM BrPA, 5 mM DCA versus vehicle; n=3
Description: For footprinting of extracellular metabolites, 540 μL of media collected following 24 hours of culture was added to 60 μL of D2O (Sigma) containing 5 mM sodium 3-(trimethylsilyl)propionate-2,2,3,3-d4 (TSP) (Sigma) for chemical shift reference and 81.84 mM formate (Sigma) for peak quantification reference as described elsewhere (Turner et al., Stem Cells, 26:1547-1555 (2008)). Briefly, MEFs, iPS cells, and R1ESC were maintained in DMEM containing 15% FBS, pyruvate, L-glutamine, nonessential amino acids, 2-mercaptoethanol, and LIF in 6 well plates at 37° C. in a humidified incubator with 95% air and 5% CO2 (Martinez-Fernandez et al., Circ Res., 25; 105(7):648-56 (2009)). […]
For intracellular metabolite fingerprinting, neutralized perchloric acid extracts were concentrated with a SpeedVac and suspended in 600 μL of 100 mM phosphate buffer (pH 7.0) in D2O (Sigma) containing 0.5 mM TSP as described elsewhere (Beckonert et al., Nat. Protoc., 2:2692-2703 (2007)). […] Following Fourier transformation, spectra were autophased with metabonomic phase correction, baseline corrected using a Bernstein polynomial fit and referenced to the TSP peak (0.00 ppm) using MestReNova 5.3.2 (MestRelab Research). p-toluenesulfonic acid (Sigma) was utilized as a reference standard to calibrate the formate concentration for quantitative analysis (Shao et al., J. Chromatogr. A, 1138:305-308 (2007)). […]

[4] = test system: MEFs undergoing nuclear reprogramming; experiment: Reprogramming efficiency by alkaline phosphatase staining; details: 2-DG during reprogramming (media supplemented with 0.25 or 1.25 mM 2DG)
From the text: as §1

SMILES | % SSEA1 positive cells (reprogramming efficiency) ([1]; 100 μM BrPA during reprogramming) [% SSEA1 positive cells] | Cell growth of parental MEF population [2] | Extracellular metabolite profile of treated MEFs [3] | Induction of the pluripotent marker alkaline phosphatase [4] | % SSEA1 positive cells (reprogramming efficiency) ([1]; 1.25 mM 2-DG during reprogramming) [% SSEA1 positive cells] | % SSEA1 positive cells (reprogramming efficiency) ([1]; 5 mM DCA during reprogramming) [% SSEA1 positive cells]
O=C(O)C(=O)CBr [BrPA, 3-bromopyruvic acid] | 19.8±1.0 | without impairing cell growth | consistent with inhibition of glycolysis and stimulation of oxidative metabolism | – | – | –
O=CC[C@@H](O)[C@H](O)[C@H](O)CO [2-DG, 2-deoxyglucose] | – | without impairing cell growth | consistent with inhibition of glycolysis and stimulation of oxidative metabolism | blunted induction of the pluripotent marker alkaline phosphatase | 0.9±0.3 | –
O=C(O)C(Cl)Cl [DCA, dichloroacetate] | – | without impairing cell growth | – | – | – | 17.3±1.5
